In article PMC7155171, “Probing the Open Global Health Chemical Diversity Library for Multistage-Active Starting Points for Next-Generation Antimalarials” (ACS Infectious Diseases, 2020):

Assays:
[1] = tested on: P. berghei liver stage (PbLuc); test: P. berghei luciferase liver stage (PbLuc) assay in HepG2-A16-CD81 hepatocytes; type: cell-based, Plasmodium berghei; conditions: Plasmodium berghei; for IC50: HepG2-A16-CD81, 12pt dose response, read-out: PbLuc 12pt dose response: IC50; for Emax: HepG2-A16-CD81, 48 h, 12pt dose response, maximum inhibition
[2] = target: recombinant firefly luciferase (Photinus pyralis, UniProt P08659); test: biochemical; conditions: dose response; for Emax: maximum inhibition, read-out: rLuc inhibition dose response: Maximum inhibition (%); for IC50: read-out: rLuc inhibition dose response: IC50
[3] = HepG2 cytotoxicity screening (CellTiter-Glo); conditions: human, uninfected HepG2-A16-CD81 (EGFP) hepatocytes
[4] = tested on: HepG2-A16-CD81 hepatocytes; test: HepG2 cytotoxicity screening (CellTiter-Glo); conditions: for HepG2 cytotoxicity 12pt dose response: Maximum inhibition (%): 12pt dose response

Sequence of recombinant firefly luciferase (P08659 whole entry): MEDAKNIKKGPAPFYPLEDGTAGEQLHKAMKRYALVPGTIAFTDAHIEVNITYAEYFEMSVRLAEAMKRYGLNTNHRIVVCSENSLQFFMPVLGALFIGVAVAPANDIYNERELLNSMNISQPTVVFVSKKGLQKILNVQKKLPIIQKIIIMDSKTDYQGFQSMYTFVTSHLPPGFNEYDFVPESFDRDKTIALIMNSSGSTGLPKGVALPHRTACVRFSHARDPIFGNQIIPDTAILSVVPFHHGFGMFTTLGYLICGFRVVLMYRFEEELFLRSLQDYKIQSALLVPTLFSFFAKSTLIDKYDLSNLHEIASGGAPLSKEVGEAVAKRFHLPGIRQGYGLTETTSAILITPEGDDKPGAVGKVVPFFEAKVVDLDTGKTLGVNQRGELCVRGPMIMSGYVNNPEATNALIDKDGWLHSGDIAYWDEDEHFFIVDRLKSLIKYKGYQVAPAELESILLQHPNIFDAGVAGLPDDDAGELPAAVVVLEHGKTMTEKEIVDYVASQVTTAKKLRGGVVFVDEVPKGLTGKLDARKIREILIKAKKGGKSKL

Row | Structure (SMILES) | IC50 [1] [µM] | Emax [1] [%] | Emax [2] [%] | IC50 [2] [µM] | IC50 [3] [µM] | inhibition at 2 µM [3] [%] | HepG2 cytotoxicity 12pt dose response: Maximum inhibition (%) [4] [%] | HepG2 Cytotoxicity primary screen (2uM): % Inhibition [4] [%]
1 | CCC1=NC(SCC(=O)c2ccccc2)c2cc(CC)sc2N1 (centres unmarked) [UCSD-0796974] | > 25 | 42.1 | 7.45 | > 25 | > 25 | 3.26 | 3.82 | –
2 | Cc1cccc(Nc2cc(C3CCCN(CC(N)=O)C3)ccn2)n1 (centres unmarked) [UCSD-0798772] | < 0.000141 | 89.4 | – | > 8.33 | > 25 | 1.68 | 3.72 | –
3 | CCOc1ccc(CN2CCCC(c3cc4ncccc4[nH]3)C2)cc1 (centres unmarked) [UCSD-0798855] | 5.76 | 90.3 | 20.7 | > 25 | > 25 | 9.74 | 11.6 | –
4 | Fc1ccc(CN2CCCC(c3cc4ncccc4[nH]3)C2)cc1 (centres unmarked) [UCSD-0798856] | 8.45 | 78.4 | 23.6 | > 25 | > 25 | 12 | -0.046 | –
5 | Cn1cncc1CN1CCCC1c1cncc(Oc2ccc(Cl)cc2)n1 (centres unmarked) [UCSD-0800730] | 12.9 | 92.6 | 3.17 | > 25 | > 25 | – | 38.2 | 0.83
6 | Cc1ncc(CN2CCOC(c3ccc(-c4ccccc4F)cn3)C2)s1 (centres unmarked) [UCSD-0800928] | 11.1 | 85.7 | 19.3 | > 25 | > 25 | – | 36.5 | -6.23
7 | Cc1ccc(Nc2nccc(C3CCN(CC(N)=O)C3)n2)nc1 (centres unmarked) [UCSD-0800962] | 0.00289 | – | 81.5 | 0.0401 | > 25 | – | 15.1 | –
8 | COc1cc(C)c(CN2CCc3nc4ccsc4c(=O)n3CC2)cc1C [UCSD-0801369] | 8.88 | 95.5 | 5.88 | > 25 | > 25 | 0 | 25.1 | –
9 | O=c1c2sccc2nc2n1CCN(Cc1ccccc1C(F)(F)F)CC2 [UCSD-0801403] | 6.77 | 95.7 | 18.4 | > 25 | > 25 | 0 | 19.7 | –
10 | CSc1ccc(CN2C[C@@H]3CC[C@@](O)(c4ccc(C)cn4)[C@@H]3C2)cc1 [UCSD-0801744] | 23 | 66.8 | 38.3 | > 25 | > 25 | 2.45 | 9.86 | –
11 | Clc1ccc(-c2ccc(C3CNCCO3)nc2)cc1 (centres unmarked) [UCSD-0802213] | < 0.000141 | – | 95.9 | 0.0623 | > 25 | 18.1 | -1.02 | –
12 | COc1ccc(-c2ccc(C3CNCCO3)nc2)cc1 (centres unmarked) [UCSD-0802458] | < 0.000141 | 94 | 89.6 | 0.0276 | > 50 | 23.7 | -13.4 | –
13 | Cc1ccc(-c2ccc(C3CNCCO3)nc2)cc1 (centres unmarked) [UCSD-0802459] | < 0.000141 | 98.6 | 88.3 | 0.00428 | > 50 | 25.3 | 48.6 | –
14 | Cc1cc(-c2cnc(NCc3cccnc3)nc2C(C)(C)C)on1 [UCSD-0802583] | 10.1 | 86.4 | 6.14 | > 25 | > 25 | – | 45.3 | -8.43
15 | CC(C)(C)OC(=O)N1CCCN(Cc2ccon2)c2ccccc21 [UCSD-0805052] | 8.56 | 93.5 | 18.4 | > 25 | > 25 | 10.4 | 13.5 | –
16 | CCN1CC(CN(C)c2cc(C)nc(N)n2)Oc2ccccc21 (centres unmarked) [UCSD-0806866] | 5.15 | 93.5 | 15.4 | > 25 | 20.6 | -3.08 | 73.7 | –
17 | COC(=O)CSCc1noc(-c2ccc(C)cc2)n1 [UCSD-0807935] | 0.0335 | 77.1 | 62.8 | > 25 | > 25 | -4.01 | 3.73 | –
18 | N#Cc1c(Cl)nsc1NCc1cccnc1OCC(F)(F)F [UCSD-0808444] | 14.9 | 69.5 | 43.9 | > 25 | > 25 | – | -0.683 | 4.29
19 | CCNc1ccnc(CN2CCCC2C(=O)Nc2nccs2)c1 (centres unmarked) [UCSD-0809356] | 4.46 | – | 21.2 | > 25 | > 25 | – | 2.09 | 1.30
20 | CC(C(=O)Nc1sccc1C(N)=O)N(C)CCOc1ccccc1 (centres unmarked) [UCSD-0809872] | 0.787 | 95.7 | 17.7 | > 50 | > 25 | 5.59 | 7.13 | –
21 | CC(C)(C)n1ncc2c1CCCC2NCc1ccc2c(c1)OCCO2 (centres unmarked) [UCSD-0811309] | 8.69 | 87 | 85 | 15 | > 25 | -4.43 | 2.92 | –
22 | NC(=O)c1ccc(N2CCCCC2)c(NC(=O)c2ccc(F)cc2F)c1 [UCSD-0811362] | 8.87 | 81 | 19.1 | > 25 | > 25 | 2.8 | 5.59 | –
23 | Cc1cn2c(n1)C(CNCC1=Cc3ccccc3OC1)CCC2 (centres unmarked) [UCSD-0812993] | > 2.78 | 93.1 | 66.8 | > 25 | > 25 | – | 24.6 | -0.92
24 | Cc1nc(C(=O)NC2CCN(CCOc3ccc(Br)cc3)CC2)cs1 [UCSD-0818164] | 13.6 | 98.3 | 32.1 | > 25 | > 25 | – | 35.2 | 17.63
25 | Cc1ncc(C(=O)NC2CCN(CCOc3ccc(Br)cc3)CC2)s1 [UCSD-0818166] | 15.8 | 96.5 | 32.8 | > 25 | > 25 | 1.78 | 7.96 | –
